# In patent US20260152779A1, “GENETICALLY ENGINEERED FUMONISIN SENSITIVE YEAST” (FFOQSI GMBH, priority 2022, published 2026):
# Read-outs that look alike come from different tables or passages of the source.
# Experiments:
# YPH500 = experiment: paper disk inhibition zone assay, wild-type strain YPH500; assay type: cell-based, Saccharomyces cerevisiae
# wild type yeast = experiment: growth inhibition of wild type yeast by FB1; assay type: cell-based, Saccharomyces cerevisiae; conditions: at a concentration of 1000 μM FB1 or more
# Source text: Growth rates and growth inhibition can be determined by any method well known in the art, such as, but not limited to, determining cell number, using e.g. a hemocytometer, determining cell viability, e.g. using methylene blue staining, or determining relative growth calculated as the resultant optical density ratio of toxin treated cultures to untreated controls. Also yeast dry weight can be determined or conductance change can be measured during yeast growth, employing direct and indirect methods.
# YRU94ML = experiment: spotting on YPD agar plates with crude FB1, strain YRU94ML; assay type: cell-based, Saccharomyces cerevisiae; conditions: crude fumonisin stock (FB1+FB2+FB3) containing >70% FB1, 30° C., 5 days
# Description: (§1) In a further setting, the sensitive yeast strains YRU74, YRU94ML and YTKT33 were grown in YPD (1% yeast extract, 2% peptone, 2% glucose) overnight alongside the original resistant YPH500 strain. The next day, they were rediluted to an OD600 of 0.1. After reaching exponential growth (>0.3) they were diluted to an OD of 0.1 and diluted further (1:10 and 1:100) for spottings on YPD agar plates alongside containing different concentrations of the crude fumonisin stock (FB1+FB2+FB3, measured via LC-MS/MS) containing >70% FB1. The concentrations used for the prepared FB1 plates were calculated based on the measured FB1. 3 μl of each strain/dilution was pipetted onto the plates and left to grow at 30° C. for 5 days. The photos of these plates are shown above. […] Three different dilutions of each strain were spotted on every plate. […] Both YRU94ML and YTKT33 growth is inhibited at a concentration of 250 μM FB1.
# YTKT33 [1] = experiment: spotting on YPD agar plates with crude FB1, strain YTKT33; assay type: cell-based, Saccharomyces cerevisiae; conditions: crude fumonisin stock (FB1+FB2+FB3) containing >70% FB1, 30° C., 5 days
# Description: as §1
# YTKT33 [2] = experiment: spotting on SC-URA agar plates with FB1, strain YTKT33; assay type: cell-based, Saccharomyces cerevisiae; conditions: SC-URA agar plates, 87,88% pure FB1, empty pYes2-PTEF1 vector, 30° C., 5 days
# Description: In a further setting, sensitive yeast strains YRU74, YRU94ML, YTKT33 and the original yeast strain YPH500 were transformed with the empty pYes2-PTEF1 vector containing the marker URA3, so that they could grow on Synthetic Complete media lacking uracil (SC-URA). They were grown in SC-URA overnight and rediluted to an OD600 of 0.1 in the morning. After reaching exponential growth (OD600>0.3), they were diluted again for spottings on plates containing 87,88% pure FB1. 3 μl of each strain/dilution was pipetted onto the plates and left to grow at 30° C. for 5 days. The photos of these plates are shown above. […] Three spots were spotted on each plate for every strain.
# Arabidopsis = conditions: bioassay e.g. 10 days; cited from earlier work
# [3] = system: brine shrimp (Artemia salina); conditions: cited from earlier work
# primary rat hepatocytes = conditions: read-out: acute cytotoxicity (IC50 values); cited from earlier work
# human HepG2 cells = conditions: read-out: acute cytotoxicity (IC50); cited from earlier work
# YTKT33 [4] = experiment: FB1 resistance conferred by candidate genes expressed in YTKT33 on SC-URA FB1 plates; assay type: cell-based, Saccharomyces cerevisiae; conditions: SC-URA plates with different FB1 concentrations, spottings OD600 0.1, 0.01, 0.001
# Source text: The plasmids described by Janevska et al., 2020, were kindly provided by Dr. Vito Valiante. Plasmid pYes2-PTEF1 (=empty vector, TEF1 promoter) was used to express different genes assumed to confer resistance against FB1. Candidate genes were coned behind the TEF1 promoter into that plasmid and subsequently transformed into the sensitive yeast strain YTKT33 for testing.
# YOR1 (with endogenous promoter on an episomal (multicopy 2 μm) plasmid) and FvCER1 (positive control, resistance conferring ceramide synthase from Fusarium verticillioides) were used as controls. Sphingopyxis sp.
molecule,measurement,setting,value
fumonisin,development of an inhibition zone,YPH500,did not result in the development of an inhibition zone
Fumonisin B1 [FB1],growth inhibition of wild type yeast,wild type yeast,does not show significant growth inhibition
same,FB1 concentration at which growth is inhibited,YRU94ML,250 µM
same,FB1 concentration at which growth is inhibited,YTKT33 [1],250 µM
same,FB1 concentration at which growth is inhibited,YTKT33 [2],~100 µM
same,FB1 concentration at which seed germination and root development is already strongly inhibited,Arabidopsis,1 µM
same,IC50,[3]; 24 h incubation,~10 µM
same,IC50,[3]; 48 h incubation,1.7 µM
same,IC50,primary rat hepatocytes,2000 µM
same,IC50,human HepG2 cells,399 µM
"YOR1: yeast ABC transporter gene with endogenous promoter on an episomal multicopy plasmid, used as control (protein, UniProt P53049 1-1477, looked up) Oligomycin resistance …: MTITVGDAVSETELENKSQNVVLSPKASASSDISTDVDKDTSSSWDDKSLLPTGEYIVDRNKPQTYLNSDDIEKVTESDIFPQKRLFSFLHSKKIPEVPQTDDERKIYPLFHTNIISNMFFWWVLPILRVGYKRTIQPNDLFKMDPRMSIETLYDDFEKNMIYYFEKTRKKYRKRHPEATEEEVMENAKLPKHTVLRALLFTFKKQYFMSIVFAILANCTSGFNPMITKRLIEFVEEKAIFHSMHVNKGIGYAIGACLMMFVNGLTFNHFFHTSQLTGVQAKSILTKAAMKKMFNASNYARHCFPNGKVTSFVTTDLARIEFALSFQPFLAGFPAILAICIVLLIVNLGPIALVGIGIFFGGFFISLFAFKLILGFRIAANIFTDARVTMMREVLNNIKMIKYYTWEDAYEKNIQDIRTKEISKVRKMQLSRNFLIAMAMSLPSIASLVTFLAMYKVNKGGRQPGNIFASLSLFQVLSLQMFFLPIAIGTGIDMIIGLGRLQSLLEAPEDDPNQMIEMKPSPGFDPKLALKMTHCSFEWEDYELNDAIEEAKGEAKDEGKKNKKKRKDTWGKPSASTNKAKRLDNMLKDRDGPEDLEKTSFRGFKDLNFDIKKGEFIMITGPIGTGKSSLLNAMAGSMRKTDGKVEVNGDLLMCGYPWIQNASVRDNIIFGSPFNKEKYDEVVRVCSLKADLDILPAGDMTEIGERGITLSGGQKARINLARSVYKKKDIYLFDDVLSAVDSRVGKHIMDECLTGMLANKTRILATHQLSLIERASRVIVLGTDGQVDIGTVDELKARNQTLINLLQFSSQNSEKEDEEQEAVVAGELGQLKYESEVKELTELKKKATEMSQTANSGKIVADGHTSSKEERAVNSISLKIYREYIKAAVGKWGFIALPLYAILVVGTTFCSLFSSVWLSYWTENKFKNRPPSFYMGLYSFFVFAAFIFMNGQFTILCAMGIMASKWLNLRAVKRILHTPMSYIDTTPLGRILNRFTKDTDSLDNELTESLRLMTSQFANIVGVCVMCIVYLPWFAIAIPFLLVIFVLIADHYQSSGREIKRLEAVQRSFVYNNLNEVLGGMDTIKAYRSQERFLAKSDFLINKMNEAGYLVVVLQRWVGIFLDMVAIAFALIITLLCVTRAFPISAASVGVLLTYVLQLPGLLNTILRAMTQTENDMNSAERLVTYATELPLEASYRKPEMTPPESWPSMGEIIFENVDFAYRPGLPIVLKNLNLNIKSGEKIGICGRTGAGKSTIMSALYRLNELTAGKILIDNVDISQLGLFDLRRKLAIIPQDPVLFRGTIRKNLDPFNERTDDELWDALVRGGAIAKDDLPEVKLQKPDENGTHGKMHKFHLDQAVEEEGSNFSLGERQLLALTRALVRQSKILILDEATSSVDYETDGKIQTRIVEEFGDCTILCIAHRLKTIVNYDRILVLEKGEVAEFDTPWTLFSQEDSIFRSMCSRSGIVENDFENRS",resistance to FB1 conferred by the expressed gene,YTKT33 [4],weak resistance
